Experimental data from article PMC10299588, “Bromotyrosine-Derived Metabolites from a Marine Sponge Inhibit Pseudomonas aeruginosa Biofilms” (International Journal of Molecular Sciences, 2023).
“Also recorded” adds a separate entry of the source.

What was measured:
Assay type in all cases: cell-based, Pseudomonas aeruginosa
[1] = system: DNA damage reporter strain MDM-623; experiment: Cellular bioluminescent assay (DNA damage reporter); settings: 8 h; ciprofloxacin at 0.0625, 0.083, 0.25 and 25 µg/mL
Description: Ciprofloxacin, a fluroquinolone antibiotic, has been extensively utilized to treat various bacterial infections. It targets bacterial DNA topoisomerase and DNA gyrase, which produce breakage of double-stranded DNA, ultimately leading to cell death. […] In the effort of identifying the mechanisms of action of test compounds, we employed a DNA damage reporter strain MDM-623, which was constructed based on the promoter-luciferase reporter gene. The increased luminescence readouts are indicative of gyrase inhibition-induced promoter upregulation through the recA pathway. […] Nevertheless, there was no difference in the response of MDM-623 upon exposure to test compounds and the solvent (Figure 5E). The above results may imply that test compounds are unlikely to be DNA gyrase inhibitors and that their mechanism of action is unrelated to that of ciprofloxacin.
The reporter strain MDM-623 was kindly provided by Dr. Timothy Opperman (Microbiotix, Inc., Worcester, MA, USA). The strain harbors a promoter region from PA0614 fused to Photorhabdus luminescens luciferase luxCDABE operon, which was constructed to respond to DNA damage. All experiments were carried out as previously described with minor modification. […] Luminescence was monitored using a BioTek Synergy H1 Hybrid microplate reader for 8 h at 30-min intervals. […]

[2] = system: planktonic P. aeruginosa PAO1; experiment: Minimum inhibitory concentration (MIC) determination; settings: Pseudomonas aeruginosa; planktonic (free-living) PAO1, LB medium, 18 h, 37 °C
Description: The minimum inhibitory concentration (MIC) of compounds and antibiotics were performed as previously described, with minor modification. […] Three antibiotics, including tobramycin, ciprofloxacin, and meropenem, were dissolved in water and filter sterilized. Ten microliters of two-fold serially diluted antibiotics were transferred to a 96-well Costar plate (Corning Inc., Corning, MA, USA) followed by the addition of 90 µL of diluted cultures. After an 18-h incubation at 37 °C in the static condition, optical density OD600 was monitored using a Synergy 2 microplate reader (BioTek, Winooski, VT, USA). […] The MIC was determined as the lowest concentrations of antibiotics that inhibit complete bacterial growth compared to growth control.

[3] = system: PAO1ΔpelF (Pel deletion mutant); experiment: Biofilm inhibition assay (OD600 growth and resazurin biofilm viability); settings: ciprofloxacin alone, sub-MIC
Description: (§1) Figure 2 Biofilm assays to identify compounds that prevent biofilm formation. Biofilm inhibition assay. P. aeruginosa cultures were seeded into 384-well plates after dispensing compounds and antibiotics. The plates were incubated for 24 h at 37 °C followed by recording bacterial growth (OD600) and measuring the viability of biofilm bacteria using resazurin.
(§2) The overnight cultures at 37 °C in LB medium were washed once with sterile saline 0.9% (w/v) and adjusted to an OD600 of 0.05, and 1% inoculum was transferred into a fresh LB medium. Following incubation at 37 °C, 200 rpm for 6–6.5 h to reach the mid-log phase, the cells were washed once with sterile saline 0.9% and diluted to an OD600 of 0.01. Then, 45 µL aliquots were dispensed into 384-well plates (Greiner Bio-One, Kremsmünster, Austria, catalog no. 781091). In biofilm inhibition assays, test compounds (5 µL) were loaded prior to the addition of bacteria. The plates were incubated for 24 h at 37 °C in static conditions. The effects of compounds on bacterial growth and viability of biofilm bacteria were determined by the OD600 and resazurin metabolic assay, respectively. The final concentrations of DMSO in the assays were 1–2%. The negative controls or untreated cultures consisted of inoculum and different concentrations of DMSO. Antibiotic ciprofloxacin (0.25 µg/mL and 25 µg/mL) was used as positive controls. The initial OD600 and final OD600 were read before incubation at 37 °C and after 24 h incubation, respectively, followed by assessment of biofilm viability by resazurin metabolic assay. The experiments were carried out with three technical replicates and repeated at least twice. The growth inhibition was calculated as a function of the percentage of the total bacterial inhibition using Equation (1), where AB is the OD600 of LB medium, and AT0 and ATf are the OD600 recorded at inoculating time and at the end of the assay. (1) % Inhibition=100 × [ 1 − [OD600 (Asample Tf− Asample T0)−(AB Tf − AB T0)/OD600 (Anegative control Tf− Anegative control T0)−(AB Tf − AB T0)]]
(§3) Resazurin sodium salt (Sigma-Aldrich, St. Louis, MI, USA) was dissolved in Milli-Q water at 0.2% (w/v) and filter sterilized. The solution was stored at −20 °C in the dark. The assay was performed as previously described with modification. The cultures were withdrawn, and the plates were washed three times with sterile water using the plate washer (BioTek). To remove the remaining water in the wells, the plates were tapped with autoclaved paper towels. An amount of 50 µL of diluted RSZ solution in LB medium was added into each well, followed by incubation at 37 °C for 5–6 h. A microplate reader (BioTek Synergy 2) was used to measure the fluorescence intensity (excitation 530 nm, emission 590 nm). Data collected were determined as a function of fluorescence percentage using Equation (2), where FB is the fluorescence of the diluted RSZ solution in LB medium in the absence of P. aeruginosa cells. (2) % Inhibition=[(Fnegative control −FB )−(Fsample −FB )/(Fnegative control − FB )]×100

[4] = system: PAO1ΔpslA (Psl deletion mutant); experiment: as above
Description: as §1, §2, §3

[5] = system: PAO1ΔpelF biofilms
Description: (§4) Biofilms of wild-type PAO1 and isogenic biofilm matrix component mutants were treated with ianthelliformisamines or ciprofloxacin alone and the combinations. Their biofilms were simultaneously stained with SYTO9 (green) and propidium iodide (red). Cells with intact membranes were stained green, while cells with compromised membranes were stained red.
(§5) For biofilm bacteria imaging, bacteria were cultured, treated with test compounds, and washed, as previously mentioned in the biofilm inhibition assay. The biofilm bacteria were stained using a LIVE/DEAD BacLight bacterial viability kit (Molecular Probes, Inc., Eugene, OR, USA), which consists of SYTO9 (green; staining cells with intact membrane) and propidium iodide (red; staining cells with compromised membrane). Images were captured using a high-content imaging system Operetta CLS (Perkin Elmer, Waltham, MA, USA) with a 60× water-immersion objective.

[6] = system: PDO300 biofilms; experiment: Fluorescence microscopy of biofilms (SYTO9/propidium iodide)
Description: as §4, §5

[7] = system: PAO1 biofilms; experiment: as above
Description: as §4, §5

[8] = system: PDO300Δalg8 biofilms; experiment: as above
Description: as §4, §5

[9] = system: PAO1ΔpslA biofilms; experiment: as above; settings: alone
Description: as §4, §5

[10] = system: outer membrane of wild-type PAO1 cells; experiment: NPN uptake assay (outer membrane permeability); settings: PAO1 pre-treated with 100 µM CCCP, 30 min; polymyxin B at 6.4 and 10 µg/mL
Description: The effect of ianthelliformisamines on the permeability of the outer membrane was determined using an NPN uptake assay. NPN (1-N-phenylnapthylamine), a hydrophobic fluorescent probe, is excluded from the intact outer membranes of Gram-negative bacteria such as P. aeruginosa. It intensely fluoresces once it gains access to the phospholipid layer of membrane-compromised cells (Figure 5A). The experiments were conducted with different concentrations of ianthelliformisamines and sub-inhibitory doses of ciprofloxacin. […] The level of fluorescence intensity in bacteria challenged with test compounds, even at highest testing concentrations, resembled that in cells treated with DMSO.
The permeability of the outer membrane upon exposure to test compounds was assessed using a 1-N-phenylnapthylamine (NPN) uptake assay. An overnight culture of PAO1 was grown to an OD600 of 0.5, centrifuged, washed with HEPES buffer (5 mM, pH 7.2), and re-suspended in HEPES buffer containing 100 µM CCCP. […] Ninety microliters of the cell suspension were added to the flat-bottomed, black 96-well plate containing 10 µL of test compounds, and the NPN fluorescence was immediately monitored using a BioTek Synergy H1 Hybrid microplate reader at an excitation of 350 nm and an emission of 420 nm every min for 30 min. […]

O=C(O)c1cn(C2CC2)c2cc(N3CCNCC3)c(F)cc2c1=O [ciprofloxacin, reference compound]
luminescence response of DNA damage reporter (gyrase inhibition) [1]: steadily enhanced
MIC [2]: 0.25 µg/mL
biofilm response (reduction) [3]: ~ 60%
bacterial growth inhibition ([4]; alone at 1/3 MIC): moderately inhibited
prevention of biofilm formation ([4]; alone at 1/3 MIC): completely prevented
reduction of bacterial growth ([4]; alone at 1/3 and 1/4 MIC): > 40%
suppression of biofilm formation ([4]; alone at 1/3 and 1/4 MIC): ~ 100%
effect on survival of suspended cells ([4]; sub-lethal doses (1/3, 1/4 MIC) alone): ~ 50%
cell phenotype [5]: long, filamentous phenotypes as well as small, round spheroplasts
cell phenotype [6]: long, filamentous phenotypes as well as small, round spheroplasts
cell phenotype [7]: long, filamentous phenotypes as well as small, round spheroplasts
cell phenotype [8]: long, filamentous phenotypes as well as small, round spheroplasts
biofilm after treatment [9]: unable to form biofilms; also recorded: eradicated

C[C@@H](O)[C@H]1C(=O)N2C(C(=O)O)=C(S[C@@H]3CN[C@H](C(=O)N(C)C)C3)[C@H](C)[C@H]12 [meropenem, reference compound]
MIC [2]: 0.375 µg/mL

NC[C@H]1O[C@H](O[C@H]2[C@H](O)[C@@H](O[C@H]3O[C@H](CO)[C@@H](O)[C@H](N)[C@H]3O)[C@H](N)C[C@@H]2N)[C@H](N)C[C@@H]1O [tobramycin, reference compound]
MIC [2]: 2 µg/mL

polymyxin B
outer membrane permeabilization (NPN fluorescence) [10]: prominent fluorescence
